Source: ChEMBL document CHEMBL1154295, “Potent and selective steroidal inhibitors of 17beta-hydroxysteroid dehydrogenase type 7, an enzyme that catalyzes the reduction of the key hormones estrone and dihydrotestosterone” (J Med Chem, 2009)

Each compound was assayed against T1, 3-keto-steroid reductase/17-beta-hydroxysteroid dehydrogenase 7 (Homo sapiens) (UniProt P56937). Details: HEK293, at 0.3 µM.
T1 sequence (whole entry): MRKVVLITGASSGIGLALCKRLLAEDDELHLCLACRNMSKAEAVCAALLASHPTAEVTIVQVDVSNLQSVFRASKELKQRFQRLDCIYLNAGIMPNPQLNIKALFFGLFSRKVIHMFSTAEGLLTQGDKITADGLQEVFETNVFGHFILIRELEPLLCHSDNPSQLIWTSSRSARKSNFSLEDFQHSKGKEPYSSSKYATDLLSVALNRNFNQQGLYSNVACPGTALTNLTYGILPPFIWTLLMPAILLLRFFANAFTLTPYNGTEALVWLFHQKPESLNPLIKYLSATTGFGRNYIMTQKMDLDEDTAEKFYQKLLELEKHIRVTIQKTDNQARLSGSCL
Description: Inhibition of human 17beta-HSD7 expressed in HEK293 cells assessed as inhibition of reduction of [14C]estrone into [14C]estradiol at 0.3 uM after 7 hrs

Q: With `CC1(C)CC[C@@]2(CC[C@H]3[C@@H]4CCc5cc(OP(=O)(O)O)ccc5[C@H]4CC[C@@]32C)OC1=O` as the compound, how does the inhibition read?
A: 0%

Q: Which inhibition does the source give for `CCCCCCCCCCN(C(=O)c1c(F)cccc1C(F)(F)F)[C@H]1CC[C@H]2[C@@H]3CC[C@H]4N(C)C(=O)CC[C@]4(C)[C@H]3CC[C@]12C` here?
A: 19%

Q: Which inhibition does the source give for `CCCCCCCN(C(=O)c1ccc(C#N)cc1)[C@H]1CC[C@H]2[C@@H]3CC[C@H]4N(C)C(=O)CC[C@]4(C)[C@H]3CC[C@]12C` here?
A: 56%

Q: Which inhibition does the source give for `CCCCCCCCCCCCN(C(=O)c1ccccc1Cl)[C@H]1CC[C@H]2[C@@H]3CC[C@H]4N(C)C(=O)CC[C@]4(C)[C@H]3CC[C@]12C` here?
A: 46%

Q: Which inhibition does the source give for `CCCCCCCCCCN(C(=O)c1ccc(F)cc1F)[C@H]1CC[C@H]2[C@@H]3CC[C@H]4N(C)C(=O)CC[C@]4(C)[C@H]3CC[C@]12C` here?
A: 80%

The compounds below were run against T1, 3-keto-steroid reductase/17-beta-hydroxysteroid dehydrogenase 7 (Homo sapiens). Details: HEK293, at 3 µM.
Description: Inhibition of human 17beta-HSD7 expressed in HEK293 cells assessed as inhibition of reduction of [14C]estrone into [14C]estradiol at 3 uM after 7 hrs

Q: `CC1(C)CC[C@@]2(CC[C@H]3[C@@H]4CCc5cc(OP(=O)(O)O)ccc5[C@H]4CC[C@@]32C)OC1=O` was tested. Which inhibition did it give?
A: 16.5%

Q: For `C[C@]12CC[C@H]3[C@@H](CC=C4C[C@@H](O)CC[C@@]43C)[C@@H]1CC[C@@H]2O`, which inhibition is on record?
A: 29.7%

Q: Which inhibition does the source give for `CC(=O)[C@@]1(O)CC[C@H]2[C@@H]3CCC4=CC(=O)CC[C@]4(C)[C@H]3CC[C@@]21C` here?
A: 20.8%

Q: `C[C@]12CC=C3c4ccc(O)cc4CC[C@H]3[C@@H]1CCC2=O` was tested. Which inhibition did it give?
A: 24%

Q: Which inhibition does the source give for `C[C@]12CCc3c(ccc4cc(O)ccc34)[C@@H]1CCC2=O` here?
A: 14.2%

Q: `C[C@]12C=CC(=O)C=C1CC[C@@H]1[C@@H]2CC[C@]2(C)C(=O)CC[C@@H]12` was tested. Which inhibition did it give?
A: 21.3%

Q: `C[C@]12CC[C@@H]3c4ccc(O)cc4CC[C@H]3[C@@H]1CC[C@H]2O` was tested. Which inhibition did it give?
A: 0%

Q: For `C[C@]12CC[C@H](O)C[C@@H]1CC[C@@H]1[C@@H]2CC[C@]2(C)C(=O)CC[C@@H]12`, which inhibition is on record?
A: 8.1%

Q: Which inhibition does the source give for `C[C@]12CC[C@H]3C(=CCc4cc(O)ccc43)[C@@H]1CCC2=O` here?
A: 0%

Q: How did the inhibition turn out when `C[C@]12CC[C@H]3[C@@H](CCC4=CC(=O)CC[C@@]43C)[C@@H]1CC[C@@H]2O` was run?
A: 7.5%

Q: Which inhibition does the source give for `CCC(=C(c1ccc(O)cc1)c1ccc(OCCN(C)C)cc1)c1ccccc1` here?
A: 3%

Q: `C[C@]12CC[C@@H]3c4ccc(O)cc4CC[C@H]3[C@@H]1C[C@@H](O)[C@@H]2O` was tested. Which inhibition did it give?
A: 29.5%

Q: For `C[C@]12CCC(=O)C[C@@H]1CC[C@@H]1[C@@H]2CC[C@@]2(C)[C@H]1CC[C@]2(O)C(=O)CO`, which inhibition is on record?
A: 13.4%

Q: How did the inhibition turn out when `CC1(C)CC[C@@]2(CC[C@H]3[C@@H]4CCc5ccccc5[C@H]4CC[C@@]32C)OC1=O` was run?
A: 18.6%

Q: For `C[C@]12CC[C@@H](O)C[C@@H]1CC[C@@H]1[C@@H]2CC[C@]2(C)C(=O)CC[C@@H]12`, which inhibition is on record?
A: 2.2%

Q: `C[C@]12CC[C@H](O)C[C@@H]1CC[C@@H]1[C@@H]2CC[C@]2(C)[C@@H](O)CC[C@@H]12` was tested. Which inhibition did it give?
A: 4.5%

Q: Which inhibition does the source give for `C[C@]12CC[C@@H]3c4ccc(O)cc4CC[C@H]3[C@@H]1CCC2=O` here?
A: 10.1%

Q: How did the inhibition turn out when `C[C@]12CCC(=O)C[C@@H]1CC[C@@H]1[C@@H]2[C@@H](O)C[C@@]2(C)[C@H]1CC[C@]2(O)C(=O)CO` was run?
A: 17.2%

Q: `C[C@]12CCC(=O)C[C@@H]1CC[C@@H]1[C@@H]2CC[C@]2(C)[C@@H](O)CC[C@@H]12` was tested. Which inhibition did it give?
A: 49.6%

Q: With `CN(C)C(=O)CCCCCCCCCCC1Cc2cc(O)ccc2[C@H]2CC[C@]3(C)[C@@H](O)[C@H](Cl)C[C@H]3[C@H]12` (some centres not stated) as the compound, how does the inhibition read?
A: 18.5%

Q: With `C[C@]12CCC(=O)C=C1CC[C@@H]1[C@@H]2[C@@H](O)C[C@@]2(C)[C@H]1CC[C@]2(O)C(=O)CO` as the compound, how does the inhibition read?
A: 10.3%

Q: Which inhibition does the source give for `CC(=O)[C@@]1(O)CC[C@H]2[C@@H]3CC[C@H]4CC(=O)CC[C@]4(C)[C@H]3CC[C@@]21C` here?
A: 14.5%

Q: With `CC(=O)[C@@]1(O)CC[C@H]2[C@@H]3CC=C4C[C@@H](O)CC[C@]4(C)[C@H]3CC[C@@]21C` as the compound, how does the inhibition read?
A: 4.1%

Q: For `CC(=O)[C@H]1CC[C@H]2[C@@H]3CC=C4C[C@@H](O)CC[C@]4(C)[C@H]3CC[C@]12C`, which inhibition is on record?
A: 13.2%

Q: With `C[C@]12CC[C@@H]3c4ccc(O)cc4C[C@@H](CCCCCCCCC[S+]([O-])CCCC(F)(F)C(F)(F)F)[C@H]3[C@@H]1CC[C@@H]2O` (some centres not stated) as the compound, how does the inhibition read?
A: 15.7%

Q: For `CC(C)(O)C(=O)Nc1ccc([N+](=O)[O-])c(C(F)(F)F)c1`, which inhibition is on record?
A: 8.2%

Q: For `C[C@]12CC[C@H](O)C=C1CC[C@@H]1[C@@H]2CC[C@]2(C)C(=O)CC[C@@H]12`, which inhibition is on record?
A: 12.2%
